“And” between values parts separate entries of the source, which are not always exact repeats. Equal values may be shown once. Inconclusive results and toxic doses are left out.
Test system: P388 leukemia ip, CD2F1 mice, survival T/C
Assay: NCI In Vivo Anticancer Drug Screen. Data for tumor model P388 Leukemia (intraperitoneal) in CD2F1 (CDF1) mice
Details: endpoint: median survival time, higher = longer survival
In short: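 Mice carrying the transplanted tumor received test compound or vehicle. Survival was recorded in each group, and the value is the treated-group measurement divided by that of the vehicle-treated control group.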

[1] = dose: 6.25 mg/kg/injection, schedule: Q01DX005 (ip), vehicle: saline with Tween-80
[2] = dose: 12.5 mg/kg/injection, schedule: Q01DX005 (ip), vehicle: saline with Tween-80
[3] = dose: 50.0 mg/kg/injection, schedule: Q01DX005 (ip), vehicle: saline with Tween-80
[4] = dose: 60.0 mg/kg/injection, schedule: Q01DX005 (ip), vehicle: Klucel (hydroxypropylcellulose) (HPC)
[5] = dose: 120.0 mg/kg/injection, schedule: Q01DX005 (ip), vehicle: Klucel (hydroxypropylcellulose) (HPC)
[6] = dose: 240.0 mg/kg/injection, schedule: Q01DX005 (ip), vehicle: Klucel (hydroxypropylcellulose) (HPC)
[7] = dose: 100.0 mg/kg/injection, schedule: Q01DX005 (ip), vehicle: saline with Tween-80
[8] = dose: 25.0 mg/kg/injection, schedule: Q01DX009 (ip), vehicle: saline with Tween-80
[9] = dose: 50.0 mg/kg/injection, schedule: Q01DX009 (ip), vehicle: saline with Tween-80

## CSc1nc2c(NN)ncnc2s1
dose: 80.5 mg/kg/injection, schedule: Q01DX001 (ip), vehicle: distilled water + alcohol
  T/C: 106 % of control
dose: 161.0 mg/kg/injection, schedule: Q01DX001 (ip), vehicle: distilled water + alcohol
  T/C: 102 % of control
dose: 322.0 mg/kg/injection, schedule: Q01DX001 (ip), vehicle: distilled water + alcohol
  T/C: 102 % of control

## O=[N+]([O-])c1c(Nc2ccccc2)n(-c2ccccc2)c2ccc(O)cc12
dose: 3.12 mg/kg/injection, schedule: Q01DX005 (ip), vehicle: saline with Tween-80
  T/C: 92 % of control
[1]
  T/C: 102 % of control
[2]
  T/C: 90 % of control and 92 % of control
[3]
  T/C: 86 % of control

## COc1ccc(C2=NC(=O)OC2(C)C)cc1
[4]
  T/C: 110 % of control
[5]
  T/C: 102 % of control
[6]
  T/C: 108 % of control

## CC(NCCNC(C)C(=O)O)C(=O)O (centres undefined)
dose: 50.0 mg/kg/injection, schedule: Q01DX005 (ip), vehicle: saline
  T/C: 101 % of control
dose: 100.0 mg/kg/injection, schedule: Q01DX005 (ip), vehicle: saline
  T/C: 103 % of control
dose: 200.0 mg/kg/injection, schedule: Q01DX005 (ip), vehicle: saline
  T/C: 100 % of control

## CCC(=NCCCCCCN=C(CC)c1cc(O)ccc1O)c1cc(O)ccc1O.[Fe]
[3]
  T/C: 88 % of control
[7]
  T/C: 89 % of control
dose: 200.0 mg/kg/injection, schedule: Q01DX005 (ip), vehicle: saline with Tween-80
  T/C: 91 % of control

## CN1CCc2cc(O)c(O)cc2C1
dose: 100.0 mg/kg/injection, schedule: Q04DX003 (ip), vehicle: saline
  T/C: 98 % of control
dose: 200.0 mg/kg/injection, schedule: Q04DX003 (ip), vehicle: saline
  T/C: 103 % of control

## COC(=O)/C(C#N)=C/c1ccco1
dose: 50.0 mg/kg/injection, schedule: Q01DX005 (ip), vehicle: Klucel (hydroxypropylcellulose) (HPC)
  T/C: 98 % of control
dose: 100.0 mg/kg/injection, schedule: Q01DX005 (ip), vehicle: Klucel (hydroxypropylcellulose) (HPC)
  T/C: 98 % of control

## CCCCCCC(=O)Oc1ccc[nH]c1=O
dose: 25.0 mg/kg/injection, schedule: Q01DX009 (ip), vehicle: distilled water + Tween-80
  T/C: 104 % of control
dose: 50.0 mg/kg/injection, schedule: Q01DX009 (ip), vehicle: distilled water + Tween-80
  T/C: 100 % of control
dose: 100.0 mg/kg/injection, schedule: Q01DX009 (ip), vehicle: distilled water + Tween-80
  T/C: 97 % of control
dose: 200.0 mg/kg/injection, schedule: Q01DX009 (ip), vehicle: distilled water + Tween-80
  T/C: 100 % of control
dose: 400.0 mg/kg/injection, schedule: Q01DX009 (ip), vehicle: distilled water + Tween-80
  T/C: 100 % of control

## COc1cc2oc3c(C)c(=O)cc4oc(-c5ccccc5)cc(c2c2c1CCC(c1ccccc1)O2)c43 (centres undefined)
[1]
  T/C: 106 % of control
dose: 7.0 mg/kg/injection, schedule: Q01DX005 (ip), vehicle: Klucel (hydroxypropylcellulose) (HPC)
  T/C: 116 % of control and 211 % of control
[2]
  T/C: 106 % of control
dose: 14.0 mg/kg/injection, schedule: Q01DX005 (ip), vehicle: Klucel (hydroxypropylcellulose) (HPC)
  T/C: 98 % of control
dose: 25.0 mg/kg/injection, schedule: Q01DX005 (ip), vehicle: saline with Tween-80
  T/C: 121 % of control
[3]
  T/C: 124 % of control
[7]
  T/C: 114 % of control

## Cc1ccc(NC(=O)Nc2cccnc2)cc1NC(=O)Nc1cccnc1
dose: 50.0 mg/kg/injection, schedule: Q01DX009 (ip), vehicle: Klucel (hydroxypropylcellulose) (HPC)
  T/C: 102 % of control
dose: 100.0 mg/kg/injection, schedule: Q01DX009 (ip), vehicle: Klucel (hydroxypropylcellulose) (HPC)
  T/C: 110 % of control
dose: 200.0 mg/kg/injection, schedule: Q01DX009 (ip), vehicle: Klucel (hydroxypropylcellulose) (HPC)
  T/C: 100 % of control

## O=S(=O)(F)c1ccc(Cl)cc1C[P+](c1ccccc1)(c1ccccc1)c1ccccc1
dose: 25.0 mg/kg/injection, schedule: Q01DX001 (ip), vehicle: Klucel (hydroxypropylcellulose) (HPC)
  T/C: 115 % of control and 120 % of control

## CCCCCC(/C=C/C1C(O[Si](C)(C)C(C)(C)C)CC(N(C)C)C1(C/C=C/CCCC(=O)OC)S(=O)(=O)c1ccccc1)O[Si](C)(C)C(C)(C)C (centres undefined)
dose: 100.0 mg/kg/injection, schedule: Q04DX002 (ip), vehicle: Klucel (hydroxypropylcellulose) (HPC)
  T/C: 91 % of control
dose: 200.0 mg/kg/injection, schedule: Q04DX002 (ip), vehicle: Klucel (hydroxypropylcellulose) (HPC)
  T/C: 88 % of control
dose: 400.0 mg/kg/injection, schedule: Q04DX002 (ip), vehicle: Klucel (hydroxypropylcellulose) (HPC)
  T/C: 89 % of control

## COc1ccc(Br)cc1C1SCC(=O)N1c1nncs1 (centres undefined)
[4]
  T/C: 101 % of control
[5]
  T/C: 101 % of control
[6]
  T/C: 93 % of control

## CCCCOCN(COCCCC)c1ccc(C)cc1
dose: 12.5 mg/kg/injection, schedule: Q01DX009 (ip), vehicle: saline with Tween-80
  T/C: 88 % of control
[8]
  T/C: 104 % of control
[9]
  T/C: 112 % of control

## C=C(C)C(=O)OC1c2c(C)coc2C(=O)C2CCCC(C)C21C (centres undefined)
[8]
  T/C: 101 % of control
[9]
  T/C: 98 % of control
dose: 100.0 mg/kg/injection, schedule: Q01DX009 (ip), vehicle: saline with Tween-80
  T/C: 102 % of control
dose: 200.0 mg/kg/injection, schedule: Q01DX009 (ip), vehicle: saline with Tween-80
  T/C: 96 % of control
